Reference: ChEMBL document CHEMBL4428113, “Antitubercular and cytotoxic tigliane-type diterpenoids from Croton tiglium” (Bioorg Med Chem Lett, 2016)

How the values were obtained:
[1] = tested on: K562; test: Cytotoxicity against human K562 cells after 72 hrs by CCK8 assay; format: functional, cell-based; settings: K562, 72 h
[2] = tested on: A549; test: Cytotoxicity against human A549 cells after 72 hrs by CCK8 assay; format: functional, cell-based; settings: A549, 72 h
[3] = tested on: Huh-7; test: Cytotoxicity against human HuH7 cells after 72 hrs by CCK8 assay; format: functional, cell-based; settings: Huh-7, 72 h
[4] = tested on: Mycobacterium tuberculosis; test: Antitubercular activity against Mycobacterium tuberculosis H37Ra incubated for 7 days by Alamar blue dye-based fluorometric assay; format: functional, organism-based; settings: 168 h

SMILES | IC50 [1] | IC50 [2] | IC50 [3] | IC50 [4]
C/C=C(\C)C(=O)O[C@@H]1[C@@H](C)[C@]2(O)[C@@H]3C=C(C)C(=O)[C@@H]3CC(CO)=C[C@H]2[C@@H]2C(C)(C)[C@]12OC(C)=O | 0.07 µM | 8.5 µM | 3.36 µM | 20.5 µM
CCC(C)C(=O)O[C@@]12[C@H](O)[C@@H](C)[C@@]3(O)[C@H]([C@@H]1C2(C)C)[C@@H](O)C(CO)=C[C@]1(O)C(=O)C(C)=C[C@@H]31 (some centres not stated) | 0.07 µM | 8.86 µM | 11.6 µM | > 30 µM
CCC(C)C(=O)O[C@@]12[C@H](O)[C@@H](C)[C@@]3(O)[C@@H](C=C(CO)C[C@]4(O)C(=O)C(C)=C[C@@H]34)[C@@H]1C2(C)C (some centres not stated) | 0.05 µM | 43.5 µM | 34.2 µM | > 30 µM
C/C=C(\C)C(=O)O[C@@H]1[C@@H](C)[C@]2(O)[C@@H]3C=C(C)C(=O)[C@@H]3CC(C=O)=C[C@H]2[C@@H]2C(C)(C)[C@]12OC(C)=O | 0.03 µM | 6.88 µM | 3.85 µM | 19.5 µM
C/C=C(\C)C(=O)O[C@@H]1[C@@H](C)[C@@]2(O)[C@@H](C(=O)C(CO)=C[C@]3(O)C(=O)C(C)=C[C@@H]23)[C@@H]2C(C)(C)[C@]12OC(=O)C(C)C | 0.05 µM | 3.11 µM | 4.41 µM | 13.4 µM
CCC(C)C(=O)O[C@@]12[C@H](O)[C@@H](C)[C@@]3(O)[C@@H](C(=O)C(CO)=C[C@]4(O)C(=O)C(C)=C[C@@H]34)[C@@H]1C2(C)C (some centres not stated) | 0.03 µM | 6.33 µM | 20.9 µM | 20.9 µM
NNC(=O)c1ccncc1 [ISONIAZID] |  |  |  | 2.04 µM
CC(=O)O[C@H]1C(=O)[C@@]2(C)[C@H]([C@H](OC(=O)c3ccccc3)[C@]3(O)C[C@H](OC(=O)[C@H](O)[C@@H](NC(=O)c4ccccc4)c4ccccc4)C(C)=C1C3(C)C)[C@]1(OC(C)=O)CO[C@@H]1C[C@@H]2O [PACLITAXEL] | 3.21 µM | 1.92 µM | 6.75 µM | 
CC1=C[C@H]2[C@@]3(O)[C@H](C)[C@@H](O)[C@]4(O)[C@H]([C@@H]3C=C(CO)C[C@]2(O)C1=O)C4(C)C [PHORBOL] | 0.1 µM | 15.3 µM | 5.93 µM | > 30 µM
